Source: patent US12156922B2, “Copper-containing complex and uses thereof” (Bar-Ilan University, priority 2017, dated 2024)
Values joined by “and” are separate entries in the source; they are usually repeats but may differ in a detail not shown here. Equal entries are not always repeated. One block for each compound: values may come before it. No end group written: not given here. *: point of attachment. MTSSL = S-(1-oxyl-2,2,5,5-tetramethyl-2,5-dihydro-1H-pyrrol-3-yl)methyl methanesulfonothioate spin label conjugate, CC1(C)C=C(CS*)C(C)(C)N1[O]

Legend:
[1] = Reduction of Cu(II) to Cu(I) by ascorbate in the presence of peptide, followed by room temperature EPR intensity; settings: 2 mM ascorbate, peptide:ascorbate:Cu(II) 1:2:2; for Cu(II) reduced: within 4000 seconds, room temperature
Description: For measuring Cu(II) reduction by EPR spectroscopy, 20 μl of aqueous CuCl2 solution (2 mM) was added to 20 μl of a solution of a tested peptide (1 mM). At time zero, 20 μl of ascorbic acid solution (2 mM) was added, and the solution was mixed under anaerobic conditions. Cu(II) EPR signal intensity (at the maximum EPR signal intensity (g⊥ position)) was measured as a function of time.
The effects of the mutations of the Pep2-Pep5 peptides on the reduction of Cu(II) to Cu(I) was then investigated, by evaluating the room temperature (RT) change in EPR intensity over time, as Cu(I) is EPR-silent. Reduction of Cu(II) was effected in the presence of 2 mM ascorbate (a peptide:ascorbate:Cu(II) molar ratio of 1:2:2). For comparison, the reduction of free Cu(II) in buffer was also measured.

[2] = Low temperature CW-EPR of Cu(II) binding to Ctr1 N-terminal peptides in KPi buffer; settings: for percentage of Cu(II) bound to peptide (species other than 4O coordination): 130 K
Description: Continuous wave electron […] (CW-EPR) spectra were recorded using an Elexsys™ E500 spectrometer (Bruker) operating at 9.0-9.5 GHz, equipped with a super-high-sensitivity CW resonator. The spectra were recorded at room temperature (RT; 295±2 K) or at low temperature (130±5 K) at a microwave power of 20.0 mW, modulation amplitude of 1.0 G, time constant of 60 or 80 milliseconds, and receiver gain of 60.0 dB. The samples were measured in 0.8 mm or 1.0 mm capillary quartz tubes (VitroCom) at RT. Solutions that were measured at low temperature were mixed with 20% glycerol, and measured in a 3.0 mm or 4.0 mm Wilmad® quartz tube.
Simulation of CW-EPR spectra was performed using MATLAB, with the EasySpin™ toolbox, according to procedures described by Stoll & Schweiger [J Magn Reson 2006, 178:42-55]. In fitting a spectrum to a simulation, emphasis is placed on small peaks of in the region of under 3000G.
The abovementioned peptides Pep1-Pep5 were investigated by CW-EPR measurements at low temperature (130 K), in the presence of different concentrations of Cu(II). The data were subsequently incorporated into simulations using the EasySpin™ tool box, and the first coordination sphere of Cu(II) was determined for each peptide, according to procedures described in Peisach & Blumberg [Arch Biochem Biophys 1974, 165:691-708]. The experimental data and comparisons with simulated data (including parameters derived from the simulations) for peptides Pep1-Pep5, at a variety of peptide:Cu(II) molar ratios, are presented in FIGS. 7-11. FIG. 12 presents the experimental data and comparisons with simulated data for peptides Pep1-Pep5 at a peptide:Cu(II) molar ratio of 1:1.
The simulation for each peptide took into account two Cu(II) species. The first species corresponds to free Cu(II) ions in water, where Cu(II) is coordinated to four oxygen atoms (4O coordination), with g∥=2.39±0.005, A∥=154±2.0 G. The second species corresponds to Cu(II) that is bound to the peptide with coordination of 3N1O or 2N2O.

[3] = UV-VIS titration of peptides with Cu(I), absorption at 265 nm; assay type: binding; settings: for absorption at 265 nm upon addition of Cu(I) (Cu(I) binding): 3-20 molar equivalents of Cu(I)
Description: UV-Visible-IR absorption spectra were obtained using a Cary® Bio 100 spectrophotometer, or using a Chirascan™ spectrometer (Applied Photophysics), at room temperature with a 1 mm optical path-length cell. Acetone was used as a reference. Typically, peptides were measured at a concentration of 0.3 mg/ml. Difference absorption spectra were obtained for peptides titrated with Cu(I) from 200 to 600 nm with a step size and a bandwidth of 0.5 nm.
Cu(I) was added to peptide solutions in the form of tetrakis(acetonitrile)copper(I) hexafluorophosphate under nitrogen gas in order to preserve anaerobic conditions. No Cu(II) signal was observed by EPR, thereby confirming the purity of the Cu(I).
In order to gain further insight into Cu(I) coordination, UV-VIS measurements were performed on the various peptides (as described n the Materials and Methods section hereinabove).

[4] = EPR of ATSM-Cu(II) complex after addition of ligands; assay type: physicochemical; settings: 0.1 mM ATSM-Cu(II), 4 molar equivalents of ligand; 30% DMSO, 0.1 M phosphate buffer (pH 7.4)
Description: (§1) The stability of the ATSM-Cu(II) complex was tested by using UV-visible spectrophotometry. […] In order to confirm the dissociation of ATSM-Cu(II) complex or the formation of copper complex with ligands or copper chelation by ligands, the effect of ligands on ATSM-Cu(II) was also tested using electron paramagnetic resonance (EPR) spectroscopy.
The stability of ASTM-Cu(II) complex was further studied by EPR spectroscopy. 0.1 mM of ATSM-Cu(II) complex was prepared in 30% DMSO and 0.1 M phosphate buffer (pH 7.4).

[5] = UV-visible titration of ATSM-Cu(II) complex with Cu(II) chelators and peptides (311 nm / 465 nm); assay type: physicochemical; settings: for molar equivalents sufficient/needed to remove copper from the ATSM-Cu(II) complex: 30% DMSO in 0.1 M phosphate buffer (pH 7.4)
Description: as §1
Stock solutions of CuCl2 (10 mM), 1,10-phenanthroline (10 mM), IDA (10 mM), and L-histidine (10 mM), NTA (5 mM) and Pep1 (5 mM) were prepared in ultrapure water (Milli-Q®). Stock solutions (1 mM) of HAGAH, HGGH and HTGMK peptides were prepared by dissolution in 0.1 M phosphate buffer (pH 7.4).
In order to facilitate the solubility of ATSM-Cu(II) complex, all the measurements were carried out in 30% DMSO in 0.1 M phosphate buffer (pH 7.4), at physiological conditions.

[6] = peptide:Cu(II) molar ratio 1:0.4
[7] = peptide:Cu(II) molar ratio 1:0.6
[8] = peptide:Cu(II) molar ratio 1:0.8
[9] = peptide:Cu(II) molar ratio 1:1.4

percentage of Cu(II) bound to peptide (species other than 4O coordination) [2, 6]: 75% | percentage of Cu(II) bound to peptide (species other than 4O coordination) [2, 7]: 75% | percentage of Cu(II) bound to peptide (species other than 4O coordination) [2, 8]: 75% | percentage of Cu(II) bound to peptide (species other than 4O coordination) [2, 9]: 40% | percentage of Cu(II) bound to peptide (species other than 4O coordination) ([2]; peptide:Cu(II) molar ratio 1:2): 40% | percentage of Cu(II) bound to peptide (species other than 4O coordination) ([2]; peptide:Cu(II) molar ratio 1:3): 30%
Compound: MDHSHAMGMSYMDS (Pep5 peptide amino acid sequence)
reduction of Cu(II) compared with wild-type peptide [1]: more rapid than in the presence of Pep1

percentage of Cu(II) bound to peptide (species other than 4O coordination) [2, 7]: 70% | percentage of Cu(II) bound to peptide (species other than 4O coordination) [2, 8]: 70% | percentage of Cu(II) bound to peptide (species other than 4O coordination) [2, 9]: 63% | percentage of Cu(II) bound to peptide (species other than 4O coordination) ([2]; peptide:Cu(II) molar ratio 1:2): 55% | percentage of Cu(II) bound to peptide (species other than 4O coordination) ([2]; peptide:Cu(II) molar ratio 1:3): 55% | Cu(I):peptide molar ratio at which binding occurred ([3]; titration with Cu(I)): exceeding 5.0
Compound: MDASHHMGMSYMDS (Pep3 peptide amino acid sequence)
Cu(II) reduced [1]: about 5%

Compound: c1cnc2c(c1)ccc1cccnc12 [1,10-phenanthroline]
effect on electron paramagnetic spectrum of ATSM-Cu(II) complex [4]: induced significant changes | molar equivalents sufficient/needed to remove copper from the ATSM-Cu(II) complex [5]: two molar equivalents

Compound: O=C(O)CN(CC(=O)O)CC(=O)O [NTA, nitrilotriacetic acid]
effect on electron paramagnetic spectrum of ATSM-Cu(II) complex [4]: induced significant changes | molar equivalents sufficient/needed to remove copper from the ATSM-Cu(II) complex [5]: at least four molar equivalents

percentage of Cu(II) bound to peptide (species other than 4O coordination) [2, 6]: 70% | percentage of Cu(II) bound to peptide (species other than 4O coordination) [2, 7]: 80% | percentage of Cu(II) bound to peptide (species other than 4O coordination) [2, 8]: 85% | percentage of Cu(II) bound to peptide (species other than 4O coordination) ([2]; peptide:Cu(II) molar ratio 1:1): 90% | percentage of Cu(II) bound to peptide (species other than 4O coordination) [2, 9]: 92% | percentage of Cu(II) bound to peptide (species other than 4O coordination) ([2]; peptide:Cu(II) molar ratio 1:2): 94% | percentage of Cu(II) bound to peptide (species other than 4O coordination) ([2]; peptide:Cu(II) molar ratio 1:3): 97% and 100%
Compound: MDHSAHMGMSYMDS (Pep4 peptide amino acid sequence)
reduction of Cu(II) compared with free Cu(II) ions [1]: more rapid than reduction of free Cu(II) ions | reduction of Cu(II) compared with wild-type peptide [1]: more rapid than in the presence of Pep1

Compound: MTSSL-CMDHSHHAGMSYMDSC-MTSSL (C(MTSSL)MDHSHHAGMSYMDSC(MTSSL)-NH2; N-terminus assumed; SMILES CSCC[C@H](NC(=O)CNC(=O)[C@H](C)NC(=O)[C@H](Cc1c[nH]cn1)NC(=O)[C@H](Cc1c[nH]cn1)NC(=O)[C@H](CO)NC(=O)[C@H](Cc1c[nH]cn1)NC(=O)[C@H](CC(=O)O)NC(=O)[C@H](CCSC)NC(=O)[C@@H](N)CSSCC1=CC(C)(C)N([O])C1(C)C)C(=O)N[C@@H](CO)C(=O)N[C@@H](Cc1ccc(O)cc1)C(=O)N[C@@H](CCSC)C(=O)N[C@@H](CC(=O)O)C(=O)N[C@@H](CO)C(=O)N[C@@H](CSSCC1=CC(C)(C)N([O])C1(C)C)C(N)=O) [Pep8]
absorption at 265 nm upon addition of Cu(I) (Cu(I) binding) [3]: did not change upon addition of Cu(I)

Compound: MTSSL-CMDHSHHMGMSYADSC-MTSSL (C(MTSSL)MDHSHHMGMSYADSC(MTSSL)-NH2; N-terminus assumed; SMILES CSCC[C@H](NC(=O)CNC(=O)[C@H](CCSC)NC(=O)[C@H](Cc1c[nH]cn1)NC(=O)[C@H](Cc1c[nH]cn1)NC(=O)[C@H](CO)NC(=O)[C@H](Cc1c[nH]cn1)NC(=O)[C@H](CC(=O)O)NC(=O)[C@H](CCSC)NC(=O)[C@@H](N)CSSCC1=CC(C)(C)N([O])C1(C)C)C(=O)N[C@@H](CO)C(=O)N[C@@H](Cc1ccc(O)cc1)C(=O)N[C@@H](C)C(=O)N[C@@H](CC(=O)O)C(=O)N[C@@H](CO)C(=O)N[C@@H](CSSCC1=CC(C)(C)N([O])C1(C)C)C(N)=O) [Pep10]
absorption at 265 nm upon addition of Cu(I) (Cu(I) binding) [3]: did not change upon addition of Cu(I)

Compound: MTSSL-CMDHSHHMGASYMDSC-MTSSL (C(MTSSL)MDHSHHMGASYMDSC(MTSSL)-NH2; N-terminus assumed; SMILES CSCC[C@H](NC(=O)[C@H](Cc1c[nH]cn1)NC(=O)[C@H](Cc1c[nH]cn1)NC(=O)[C@H](CO)NC(=O)[C@H](Cc1c[nH]cn1)NC(=O)[C@H](CC(=O)O)NC(=O)[C@H](CCSC)NC(=O)[C@@H](N)CSSCC1=CC(C)(C)N([O])C1(C)C)C(=O)NCC(=O)N[C@@H](C)C(=O)N[C@@H](CO)C(=O)N[C@@H](Cc1ccc(O)cc1)C(=O)N[C@@H](CCSC)C(=O)N[C@@H](CC(=O)O)C(=O)N[C@@H](CO)C(=O)N[C@@H](CSSCC1=CC(C)(C)N([O])C1(C)C)C(N)=O) [Pep9]
absorption at 265 nm upon addition of Cu(I) (Cu(I) binding) [3]: did not change upon addition of Cu(I)

Compound: CN=C([S-])N/N=C(C)/C(C)=N/NC([S-])=NC.[Cu+2] [ATSM-Cu(II), Cu(II)-diacetyl-bis(N4-methylthiosemicarbazone)]
stability of ATSM-Cu(II) complex in the presence of Cu(II) ligands ([5]; overall conclusion from UV-visible and EPR): may be unstable in a cellular environment

Compound: N[C@@H](Cc1c[nH]cn1)C(=O)O [L-His, L-histidine]
effect on electron paramagnetic spectrum of ATSM-Cu(II) complex [4]: induced significant changes | molar equivalents sufficient/needed to remove copper from the ATSM-Cu(II) complex [5]: at least four molar equivalents

percentage of Cu(II) bound to peptide (species other than 4O coordination) [2, 6]: 60% | percentage of Cu(II) bound to peptide (species other than 4O coordination) [2, 7]: 80% | percentage of Cu(II) bound to peptide (species other than 4O coordination) [2, 8]: 85% and 80% | percentage of Cu(II) bound to peptide (species other than 4O coordination) ([2]; peptide:Cu(II) molar ratio 1:1): 70% | percentage of Cu(II) bound to peptide (species other than 4O coordination) [2, 9]: 60% | percentage of Cu(II) bound to peptide (species other than 4O coordination) ([2]; peptide:Cu(II) molar ratio 1:2): 62% | percentage of Cu(II) bound to peptide (species other than 4O coordination) ([2]; peptide:Cu(II) molar ratio 1:3): 58%
Compound: MDHSHHMAMSYMDS (Pep2 peptide amino acid sequence)
Cu(II) reduced [1]: about 5%

Compound: O=C(O)CNCC(=O)O [IDA, Imino-diacetic acid]
effect on electron paramagnetic spectrum of ATSM-Cu(II) complex [4]: induced significant changes | molar equivalents sufficient/needed to remove copper from the ATSM-Cu(II) complex [5]: at least four molar equivalents

Compound: HTGMK
molar equivalents sufficient/needed to remove copper from the ATSM-Cu(II) complex [5]: one molar equivalent

Cu(II) bound to peptide ([2]; low Cu(II) concentrations): substantially all Cu(II) is bound | percentage of Cu(II) bound to peptide (species other than 4O coordination) ([2]; peptide:Cu(II) molar ratio 1:1): 80% | percentage of Cu(II) bound to peptide (species other than 4O coordination) [2, 9]: 70% | percentage of Cu(II) bound to peptide (species other than 4O coordination) ([2]; peptide:Cu(II) molar ratio 1:2): 70% | percentage of Cu(II) bound to peptide (species other than 4O coordination) ([2]; peptide:Cu(II) molar ratio 1:3): 70%
Compound: MDHSHHMGMSYMDS (Pep1 peptide amino acid sequence)
Cu(II) reduced [1]: about 5%
